PubChem BioAssay (NCI)
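These data come from cells grown in 96-well plates and exposed to compound for 48 hours at five concentrations. Definition used: TGI = concentration required for complete inhibition of growth.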

How the values were obtained:
Assay in all cases: NCI tumour cell line growth inhibition, 48 h
DLD-1 colon = test system: DLD-1 colon
DMS 114 small cell lung = test system: DMS 114 small cell lung
HOP-18 NSCLC = test system: HOP-18 NSCLC
KM20L2 colon = test system: KM20L2 colon
SNB-78 CNS = test system: SNB-78 CNS
M19-MEL melanoma = test system: M19-MEL melanoma
P388 leukemia = test system: P388 leukemia
P388/ADR leukemia = test system: P388/ADR leukemia
SN12K1 renal = test system: SN12K1 renal
RXF-631 renal = test system: RXF-631 renal

Row | SMILES | TGI (DLD-1 colon) [µM] | TGI (DMS 114 small cell lung) [µM] | TGI (HOP-18 NSCLC) [µM] | TGI (KM20L2 colon) [µM] | TGI (SNB-78 CNS) [µM] | TGI (M19-MEL melanoma) [µM] | TGI (P388 leukemia) [µM] | TGI (P388/ADR leukemia) [µM] | TGI (SN12K1 renal) [µM] | TGI (RXF-631 renal) [µM]
1 | c1c(N2CCOCC2)ssc1=[N+]1CCOCC1 | > 100 | > 100 | > 100 | > 100 | > 100 |  |  |  |  | 
2 | CC(=O)OC1CC2(O)C(CCC3(C)C(c4ccc(=O)oc4)CCC32O)C2(C)C1=CC(O)C1OC12 (configuration not stated) | 0.179 | 0.0335 | 0.385 | 0.533 | 0.279 | 0.245 | 154 | 250 | 0.139 | 
3 | CCCO/N=[N+](\[O-])N(CC)CC |  |  |  | > 100 | > 100 |  |  |  |  | 
4 | COc1ccc(OC)c(NC(=O)C(=O)C(C(=O)c2ccccc2F)C2OC(=O)c3ccccc32)c1 (configuration not stated) | > 100 | > 100 |  | > 100 | > 100 | > 100 |  |  |  | > 100
